Results from patent US9540343B2 (Gilead Sciences, Inc., priority 2011, dated 2017).

Columns and labels:
in vitro = details: human, uninfected MT-4 cells, CC50 (nM), same protocol as Test A, CellTiter-Glo
Summary of the method: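 Cytoprotection read-out: CellTiter-Glo chemiluminescence after 5 days at 37 °C of HIV-IIIb-infected MT-4 cells (m.o.i. 0.003) with compound in 10-point 3-fold dilutions, quadruplicate, 10% FBS. Cytotoxicity (CC50) measured identically without virus.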

HIV-IIIb = assay: Test A: Antiviral assay in MT4 cells; assay type: cell-based, HIV-1; details: Human immunodeficiency virus 1, IIIB, MT4, 120 h, read-out: % inhibition at 2 μM, percent inhibition of virus-induced cell killing, from dose response curve at 2 uM drug; MT-4 cells infected with HIV-IIIb, 5 days, CellTiter-Glo

Row | Compound | CC50 at 5 days (in vitro) [nM] | inhibition at 2 µM (HIV-IIIb) [%]
1 | NC(=O)c1cc(-c2cccnc2[C@H](Cc2cc(F)cc(F)c2)NC(=O)Cn2nc(C(F)F)c3c2C(F)(F)CCC3O)ccc1F (stereo partly drawn) [Example 334, 5-(2-((1S)-1-(2-(3-(difluoromethyl)-7,7-difluoro-4-hydroxy-4,5,6,7-tetrahydro-1H-indazol-1-yl)acetamido)-2-(3,5-difluorophenyl)ethyl)pyridin-3-yl)-2-fluorobenzamide] | 26500 | 63
2 | NC(=O)c1cc(-c2cccnc2[C@H](Cc2cc(F)cc(F)c2)NC(=O)Cn2cc(CNC3CC3)c(C(F)(F)F)n2)ccc1F [Example 335, (S)-5-(2-(1-(2-(4-((cyclopropylamino)methyl)-3-(trifluoromethyl)-1H-pyrazol-1-yl)acetamido)-2-(3,5-difluorophenyl)ethyl)pyridin-3-yl)-2-fluorobenzamide] | 51100 | 3
3 | NC(=O)c1cc(-c2cccnc2[C@H](Cc2cc(F)cc(F)c2)NC(=O)Cn2cnc3c(=O)[nH]ccc32)ccc1F [Example 336, (S)-5-(2-(2-(3,5-difluorophenyl)-1-(2-(4-oxo-4,5-dihydro-1H-imidazo[4,5-c]pyridin-1-yl)acetamido)ethyl)pyridin-3-yl)-2-fluorobenzamide] | > 53200 | 0
4 | N#Cc1nn(CC(=O)N[C@@H](Cc2cc(F)cc(F)c2)c2ncccc2-c2ccc(F)c(C(N)=O)c2)cc1C1CC1 [Example 337, (S)-5-(2-(1-(2-(3-cyano-4-cyclopropyl-1H-pyrazol-1-yl)acetamido)-2-(3,5-difluorophenyl)ethyl)pyridin-3-yl)-2-fluorobenzamide] | 27900 | 20
5 | NC(=O)c1cccc(-c2cccnc2[C@H](Cc2cc(F)cc(F)c2)NC(=O)Cc2c[nH]c3cc(C4CC4)c(=O)[nH]c23)c1 [Example 338C, (S)-3-(2-(1-(2-(6-cyclopropyl-5-oxo-4,5-dihydro-1H-pyrrolo[3,2-b]pyridin-3-yl)acetamido)-2-(3,5-difluorophenyl)ethyl)pyridin-3-yl)benzamide] | > 53000 | 35
6 | NC(=O)c1cc(-c2cccnc2[C@H](Cc2cc(F)cc(F)c2)NC(=O)Cn2nc(C(F)(F)F)c3c2CCC=C3)ccc1F [Example 339B, (S)-5-(2-(2-(3,5-difluorophenyl)-1-(2-(3-(trifluoromethyl)-6,7-dihydro-1H-indazol-1-yl)acetamido)ethyl)pyridin-3-yl)-2-fluorobenzamide] | 19400 | 53
7 | NC(=O)c1cc(-c2cccnc2[C@H](Cc2cc(F)cc(F)c2)NC(=O)Cn2nc(C(F)(F)F)c3c2C(F)(F)CCC3=O)ccc1F [Example 340B, (S)-5-(2-(1-(2-(7,7-difluoro-4-oxo-3-(trifluoromethyl)-4,5,6,7-tetrahydro-1H-indazol-1-yl)acetamido)-2-(3,5-difluorophenyl)ethyl)pyridin-3-yl)-2-fluorobenzamide] | 32800 | 32
8 | C#Cc1cn(CC(=O)N[C@@H](Cc2cc(F)cc(F)c2)c2ncccc2-c2ccc(F)c(C(N)=O)c2)nc1C(F)(F)F [Example 341, (S)-5-(2-(2-(3,5-difluorophenyl)-1-(2-(4-ethynyl-3-(trifluoromethyl)-1H-pyrazol-1-yl)acetamido)ethyl)pyridin-3-yl)-2-fluorobenzamide] | 26600 | 13
9 | NC(=O)c1cc(-c2cccnc2[C@H](Cc2cc(F)cc(F)c2)NC(=O)Cn2nc(C(F)(F)F)c3c2C2CC2CC3)ccc1F (stereo partly drawn) [Example 342C, 5-(2-((1S)-2-(3,5-difluorophenyl)-1-(2-(3-(trifluoromethyl)-5,5a,6,6a-tetrahydrocyclopropa[g]indazol-1(4H)-yl)acetamido)ethyl)pyridin-3-yl)-2-fluorobenzamide] | 13700 | 119
10 | CCc1c(C2CC2)c(C(F)(F)F)nn1CC(=O)N[C@@H](Cc1cc(F)cc(F)c1)c1ncccc1-c1ccc(F)c(C(N)=O)c1 [Example 343, (S)-5-(2-(1-(2-(4-cyclopropyl-5-ethyl-3-(trifluoromethyl)-1H-pyrazol-1-yl)acetamido)-2-(3,5-difluorophenyl)ethyl)pyridin-3-yl)-2-fluorobenzamide] | 15500 | 62
11 | Cc1cc(=O)n(CC(=O)N[C@@H](Cc2cc(F)cc(F)c2)c2ncccc2-c2cccc(S(N)(=O)=O)c2)c2ccccc12 [Example 345, (S)—N-(2-(3,5-difluorophenyl)-1-(3-(3-sulfamoylphenyl)pyridin-2-yl)ethyl)-2-(4-methyl-2-oxoquinolin-1(2H)-yl)acetamide] | 12400 | 21
12 | NC(=O)c1cc(-c2cccnc2[C@H](Cc2cc(F)cc(F)c2)NC(=O)Cn2nc3c(c2C(F)(F)F)C(=O)C2CC32)ccc1F (stereo partly drawn) [Example 346D, 5-(2-((1S)-2-(3,5-difluorophenyl)-1-(2-(4-oxo-3-(trifluoromethyl)-4,4-a,5,5a-tetrahydro-2H-cyclopropa[4,5]cyclopenta[1,2-c]pyrazol-2-yl)acetamido)ethyl)pyridin-3-yl)-2-fluorobenzamide] | 39000 | 1
13 | CC1(O)CCCc2c(C(F)F)nn(CC(=O)N[C@@H](Cc3cc(F)cc(F)c3)c3ncccc3-c3ccc(F)c(C(N)=O)c3)c21 (stereo partly drawn) [Example 349B, 5-(2-((1S)-1-(2-(3-(difluoromethyl)-7-hydroxy-7-methyl-4,5,6,7-tetrahydro-1H-indazol-1-yl)acetamido)-2-(3,5-difluorophenyl)ethyl)pyridin-3-yl)-2-fluorobenzamide] | 40800 | 94
14 | NC(=O)c1cc(-c2cccnc2[C@H](Cc2cc(F)cc(F)c2)NC(=O)Cn2cc(C(F)F)c(C(F)(F)F)n2)ccc1F [Example 350, (S)-5-(2-(1-(2-(4-(difluoromethyl)-3-(trifluoromethyl)-1H-pyrazol-1-yl)acetamido)-2-(3,5-difluorophenyl)ethyl)pyridin-3-yl)-2-fluorobenzamide] | 28100 | 10
15 | O=C(Cn1nc(C(F)(F)F)c2c1CCCC2)N[C@@H](Cc1cc(F)cc(F)c1)c1ncncc1-c1ccc(Cl)cc1 [Example 351, (S)—N-(1-(5-(4-chlorophenyl)pyrimidin-4-yl)-2-(3,5-difluorophenyl)ethyl)-2-(3-(trifluoromethyl)-4,5,6,7-tetrahydro-1H-indazol-1-yl)acetamide] | 8600 | 95
16 | Cc1cc2ncn(CC(=O)N[C@@H](Cc3cc(F)cc(F)c3)c3ncccc3-c3cccc(S(=O)(=O)NC4CC4)c3)c2cc1C [Example 353B, (S)—N-(1-(3-(3-(N-cyclopropylsulfamoyl)phenyl)pyridin-2-yl)-2-(3,5-difluorophenyl)ethyl)-2-(5,6-dimethyl-1H-benzo[d]imidazol-1-yl)acetamide] | 12700 | 110
17 | Cc1cc2[nH]cc(CC(=O)N[C@@H](Cc3cc(F)cc(F)c3)c3ncccc3-c3cccc(C(N)=O)c3)c2[nH]c1=O [Example 354, (S)-3-(2-(2-(3,5-difluorophenyl)-1-(2-(6-methyl-5-oxo-4,5-dihydro-1H-pyrrolo[3,2-b]pyridin-3-yl)acetamido)ethyl)pyridin-3-yl)benzamide] | > 53000 | 82
18 | NC(=O)c1cc(-c2cccnc2[C@H](Cc2cc(F)cc(F)c2)NC(=O)Cn2cc(C3=CCCC3)c(C(F)(F)F)n2)ccc1F [Example 355, (S)-5-(2-(1-(2-(4-cyclopentenyl-3-(trifluoromethyl)-1H-pyrazol-1-yl)acetamido)-2-(3,5-difluorophenyl)ethyl)pyridin-3-yl)-2-fluorobenzamide] | 9460 | 1
19 | CC1(O)CCCc2c(C(F)(F)F)nn(CC(=O)N[C@@H](Cc3cc(F)cc(F)c3)c3ncccc3-c3ccc(F)c(C(N)=O)c3)c21 (stereo partly drawn) [Example 356, 5-(2-((1S)-2-(3,5-difluorophenyl)-1-(2-(7-hydroxy-7-methyl-3-(trifluoromethyl)-4,5,6,7-tetrahydro-1H-indazol-1-yl)acetamido)ethyl)pyridin-3-yl)-2-fluorobenzamide] | 20600 | 76
20 | CC(C)(C)C#Cc1cn(CC(=O)N[C@@H](Cc2cc(F)cc(F)c2)c2ncccc2-c2ccc(F)c(C(N)=O)c2)nc1C(F)(F)F [Example 357, (S)-5-(2-(2-(3,5-difluorophenyl)-1-(2-(4-(3,3-dimethylbut-1-ynyl)-3-(trifluoromethyl)-1H-pyrazol-1-yl)acetamido)ethyl)pyridin-3-yl)-2-fluorobenzamide] | 8820 | 0
21 | NC(=O)c1cccc(-c2cccnc2[C@H](Cc2cc(F)cc(F)c2)NC(=O)Cn2c(C(F)F)nc3ccccc32)c1 [Example 358, (S)-3-(2-(1-(2-(2-(difluoromethyl)-1H-benzo[d]imidazol-1-yl)acetamido)-2-(3,5-difluorophenyl)ethyl)pyridin-3-yl)benzamide] | 47400 | 20
22 | N#Cc1nn(CC(=O)N[C@@H](Cc2cc(F)cc(F)c2)c2ncccc2-c2ccc(F)c(C(N)=O)c2)cc1Br [Example 359, (S)-5-(2-(1-(2-(4-bromo-3-cyano-1H-pyrazol-1-yl)acetamido)-2-(3,5-difluorophenyl)ethyl)pyridin-3-yl)-2-fluorobenzamide] | 25300 | 2
23 | COc1nc2c(CC(=O)N[C@@H](Cc3cc(F)cc(F)c3)c3ncccc3-c3cccc(C(N)=O)c3)c[nH]c2cc1C [Example 360E, (S)-3-(2-(2-(3,5-difluorophenyl)-1-(2-(5-methoxy-6-methyl-1H-pyrrolo[3,2-b]pyridin-3-yl)acetamido)ethyl)pyridin-3-yl)benzamide] | 13100 | 55
